Data reported in patent US9981972B2, “N-hydroxy bicyclic hydantoin carbamates as tools for identification of serine hydrolase targets” (ABIDE THERAPEUTICS, INC., priority 2014, dated 2018).
“Also recorded” adds a separate entry of the source.

Assays:
ABHD4 = target: T1, ABHD4 (Homo sapiens, UniProt Q8TB40); test: Gel-based competitive ABPP, recombinant enzyme in transfected HEK293T cell lysates; format: biochemical; design: myc-his; expressed in transfected cells; host or cells: HEK293T, transient transfection, pcDNA3.1/myc-his; lysate used in vitro; conditions: competitive ABPP with FP-Rh, 30 min 37° C.
T1 sequence (Q8TB40 1-342): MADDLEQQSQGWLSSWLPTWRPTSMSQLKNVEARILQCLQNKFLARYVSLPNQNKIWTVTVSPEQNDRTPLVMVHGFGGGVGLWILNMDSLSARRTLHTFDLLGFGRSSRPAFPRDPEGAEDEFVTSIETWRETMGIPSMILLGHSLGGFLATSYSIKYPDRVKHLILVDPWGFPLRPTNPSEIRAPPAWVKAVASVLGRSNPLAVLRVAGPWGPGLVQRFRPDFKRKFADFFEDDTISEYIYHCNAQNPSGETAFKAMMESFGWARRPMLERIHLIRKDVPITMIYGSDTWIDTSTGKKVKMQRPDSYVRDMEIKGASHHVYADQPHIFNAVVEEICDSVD
Protocol: (§1) HEK293T cells were seeded at 2×10^5 per well on 6 well plates and grown for 48 h. They were then transfected with mABHD3 (pCMV-Sport6), hABHD4 (pcDNA3.1/myc-his), hPPT1 (pCMV6-XL5), or hPPT1 S115A (pCMV6-XL5), by incubating 0.5 μg of DNA with 3 μL of PEI MAX (1 mg/mL, Polysciences, Inc) in serum-free DMEM for 30 min, then adding them to cells. After 48 h cells were either treated with compound in situ, as described above, or harvested for in vitro studies. The […] PPT1 mutation was introduced using QuikChange II Site Directed Mutagenesis Kit (Agilent) with the following primers: […]
Human ABHD3 and ABHD4 were recombinantly expressed by transient transfection in HEK293T cells, and the cell lysates were combined to provide a convenient assay for monitor inhibition of both enzymes by gel-based ABPP (see FIG. 8A). […]

PPT1 (wild type, S115A) [1] = test: Labeling of recombinant PPT1 by probes (gel-based ABPP, isoTOP-ABPP); format: biochemical, human; conditions: transfected HEK293T lysates, CuAAC to azide-Rh, PNGaseF
Protocol: as §1
(§2) Whole cell lysates (500 μL, 1.5 mg/mL) of hPPT1 transfected HEK239Ts were processed for MS analysis using the previously described isoTOP-ABPP protocol (Weerapana et al., Nature 468, 790-795, 2010). In brief, for analysis of Compound 39-modified peptides, proteomes were split into two fractions, to which Compound 39 (5 μM, 60 min) or DMSO were added. […] MS1 peaks for probe-labeled quantified peptides were extracted with Xcalibur Qual Browser 2.2 (Thermo Scientific). […]
(§3) HEK293T cells were transfected with wild type and an S115A mutant of PPT1, lysed, and treated with Compound 39 followed by CuAAC conjugation to an azide-Rh tag, PNGaseF treatment, and analysis by SDS-PAGE. […] S115 was identified as the site of Compound 39 labeling on PPT1 using a quantitative MS method termed isoTOP-ABPP. […]

PPT1 (wild type, S115A) [2] = target: T2, PPT1 (wild type, S115A) (Homo sapiens, UniProt P50897); test: as above; format: biochemical; conditions: transfected HEK293T cell lysates, gel-based ABPP
T2 construct: expressed in transfected cells; host or cells: HEK293T
Protocol: as §1, §2, §3

[3] = system: SHs in PC3 cell proteomes; test: Probe-versus-probe ABPP-SILAC, PC3 proteomes; format: biochemical, human; conditions: Compound 39 5 μM, 1 h versus FP-biotin 2.5 μM
Protocol: Isotopically heavy- and light-labeled PC3 cells were treated with Compound 37 (1 μM) or DMSO for 4 h, respectively, lysed, and then treated Compound 39 (5 μM, 1 h). […] Among the handful of additional SH targets of Compound 37 were ABHD6 and PLA2G7, which were expected based on our ABPP-SILAC studies with FP-biotin (see FIG. 9), and protein-palmitoyl thioesterase 1 (PPT1), which was inhibited by more than 90%. […] Accordingly, PPT1 was not detected in our previous ABPP-SILAC studies with FP-biotin (see FIG. 9). The selective enrichment of PPT1 by Compound 39 was confirmed by performing a probe-versus-probe ABPP-SILAC study, where heavy and light PC3 proteomes were treated with FP-biotin (2.5 μM, 1 h) and Compound 39 (5 μM, 1 h), respectively. PPT1, along with two additional SHs LIPA and DDHD2, were preferentially enriched by Compound 39 over FP-biotin, while most of the other SHs were more strongly enriched by FP-biotin (see FIG. 13). A handful of SHs corresponding mostly to enzymes that were identified in our ABPP-SILAC studies as targets of Compound 37 (see FIGS. 9 and 12), were equivalently enriched by Compound 39 and FP-biotin (see FIG. 13).

T2 sequence (P50897 28-306 S115A): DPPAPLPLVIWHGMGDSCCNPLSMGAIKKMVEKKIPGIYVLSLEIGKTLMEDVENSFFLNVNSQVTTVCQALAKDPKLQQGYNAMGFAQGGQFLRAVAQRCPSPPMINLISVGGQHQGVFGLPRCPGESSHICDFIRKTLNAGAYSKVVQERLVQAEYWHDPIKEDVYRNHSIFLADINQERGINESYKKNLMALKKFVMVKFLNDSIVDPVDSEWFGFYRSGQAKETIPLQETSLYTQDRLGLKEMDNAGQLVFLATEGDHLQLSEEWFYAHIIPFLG

C#CCOc1ccc(N2CCN(C(=O)ON3C(=O)C4CN(Cc5ccc(Oc6ccccc6)cc5)CCN4C3=O)CC2)cc1 (stereo not shown) [Compound 39, 1,3-dioxo-7-(4-phenoxybenzyl)hexahydroimidazo[1,5-a]pyrazin-2(3H)-yl 4-(4-(prop-2-yn-1-yloxy)phenyl)piperazine-1-carboxylate]
inhibition of ABHD4 in transfected HEK293T cell proteome (ABHD4): inhibited ABHD4 in transfected HEK293T cell proteome in a concentration-dependent manner
labeling of wild type PPT1 versus S115A mutant (PPT1 (wild type, S115A) [1]): labels recombinant wild type PPT1, but not the catalytic serine mutant (S115A); also recorded: strong labeling of wild-type PPT1, but not the S115A mutant
probe reactivity with recombinant hPPT1 (PPT1 (wild type, S115A) [2]): reacts; also recorded: reacted with PPT1
SHs preferentially enriched by Compound 39 over FP-biotin [3]: PPT1 and LIPA and DDHD2
